ChEMBL document CHEMBL1201862, “PubChem BioAssay data set” (2004)
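Grown in 96-well plates, cells were treated for 48 hours with each compound at five concentrations. Insufficient inhibition: endpoint recorded as highest concentration tested. At the GI50, growth is halved.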 Activity calls are given as the source filed them. Rule as the data show it: active = GI50 up to about 1.1 µM and inactive = higher.

Tests used:
Experiment in all cases: growth of human tumour cells (NCI), 48 h
[1] = system: LXFL 529
[2] = system: SF-539
[3] = system: DLD-1
[4] = system: OVCAR-3
[5] = system: XF498
[6] = system: UO-31
[7] = system: A498
[8] = system: U-251
[9] = system: NCI-H522
[10] = system: Malme-3M
[11] = system: HT-29
[12] = system: SF-295
[13] = system: NCI-H460
[14] = system: EKVX
[15] = system: A549
[16] = system: KM-20L2
[17] = system: UACC-62
[18] = system: M19-MEL
[19] = system: LOX IMVI
[20] = system: HCC 2998
[21] = system: SW-620
[22] = system: OVCAR-4
[23] = system: NCI-H226
[24] = system: SK-MEL-28
[25] = system: HCT-116
[26] = system: HL-60
[27] = system: COLO 205
[28] = system: UACC-257
[29] = system: ACHN
[30] = system: DMS-273
[31] = system: 786-0
[32] = system: SF-268
[33] = system: SNB-78
[34] = system: CAKI-1
[35] = system: HOP-62
[36] = system: HOP-18
[37] = system: OVCAR-8
[38] = system: HOP-92
[39] = system: IGROV-1
[40] = system: SN12C
[41] = system: HCT-15
[42] = system: SK-MEL-5
[43] = system: K562
[44] = system: OVCAR-5
[45] = system: M14
[46] = system: TK-10
[47] = system: RXF 393
[48] = system: SNB-75
[49] = system: SNB-19
[50] = system: KM12
[51] = system: DMS-114
[52] = system: SK-MEL-2
[53] = system: NCI-H23
[54] = system: CCRF-CEM
[55] = system: RPMI-8226
[56] = system: MOLT-4
[57] = system: SK-OV-3

Measured: GI50

CC1=C(C(=O)NCc2ccccc2)C(c2ccc([N+](=O)[O-])cc2)C(C(=O)NCc2ccccc2)=C(C)N1
inactive: [1] 36.7 µM | [2] 66.4 µM | [3] 36.7 µM | [4] 46.5 µM | [5] 59 µM | [6] 20.6 µM | [7] 86.1 µM | [8] 40.3 µM | [9] 28.5 µM | [10] 67.5 µM | [11] 18.1 µM | [12] 37.1 µM | [13] 35.1 µM | [14] > 100 µM | [15] 31.9 µM | [16] 22 µM | [17] 16.8 µM | [18] 21.3 µM | [19] 18.2 µM | [20] 39.8 µM | [21] 63.7 µM | [22] 17.4 µM | [23] 31.8 µM | [24] 37.7 µM | [25] 21.9 µM | [26] 21.2 µM | [27] 29.2 µM | [28] 38.6 µM | [29] 27.4 µM | [30] 40.6 µM | [31] 44.2 µM | [32] 50.7 µM | [33] 78.7 µM | [34] 26.7 µM | [35] > 100 µM | [36] > 100 µM | [37] 39.8 µM | [38] 26.8 µM | [39] 56.5 µM | [40] 76 µM | [42] 38.5 µM | [43] 31.2 µM | [44] 25.4 µM | [45] 21.8 µM | [46] 42.8 µM | [47] 31.6 µM | [48] 40.4 µM | [49] 65.2 µM | [50] 34.7 µM | [51] 30.2 µM | [52] 30.8 µM | [53] 39.7 µM
45.4 µM: [41]

CCCC1N2CCCCC2[C@@H]2c3[nH]c4ccccc4c3CCN12 (stereo not given in full)
inactive: [1] > 100 µM | [2] > 100 µM | [3] > 100 µM | [4] > 100 µM | [5] > 100 µM | [54] > 100 µM | [6] > 100 µM | [7] > 100 µM | [8] > 100 µM | [10] 25.8 µM | [11] > 100 µM | [55] > 100 µM | [12] > 100 µM | [13] > 100 µM | [56] > 100 µM | [14] > 100 µM | [57] > 100 µM | [15] > 100 µM | [16] > 100 µM | [17] 85.1 µM | [18] > 100 µM | [20] > 100 µM | [21] > 100 µM | [22] > 100 µM | [24] > 100 µM | [25] > 100 µM | [26] > 100 µM | [27] > 100 µM | [28] > 100 µM | [29] > 100 µM | [30] > 100 µM | [31] > 100 µM | [32] > 100 µM | [33] 53.8 µM | [34] > 100 µM | [35] > 100 µM | [36] > 100 µM | [37] > 100 µM | [38] > 100 µM | [39] > 100 µM | [40] > 100 µM | [42] > 100 µM | [43] > 100 µM | [44] > 100 µM | [45] > 100 µM | [47] > 100 µM | [48] 32.3 µM | [49] > 100 µM | [51] > 100 µM | [52] > 100 µM | [53] > 100 µM
> 100 µM: [41]
